# Source: PubChem BioAssay AID1745844 (Carcinogenic Potency Database (CPDB), 2022)
# Active and inactive are the calls of the source. How the calls were made is not given here.
# Tested on: rodent lifetime carcinogenesis bioassay, tumor incidence TD50
# Test: carcinogenic potency in animals, long-term in vivo studies, CPDB compilation (AID 1745844)
smiles,measurement,setting,value
O=[N+]([O-])c1ccc2c3c(cccc13)CC2,TD50,"hamster, strain Syrian Golden, females, in feed, site: bile duct, lesion: cholangioma, dosed 26 weeks, study length 71 weeks",354 mg/kg/day
same,TD50,"mouse, strain B6C3F1, females, in feed, site: any site (literature study), lesion: several types, types named in the paper, dosed 78 weeks, study length 96 weeks",90.4 mg/kg/day
same,TD50,"mouse, strain B6C3F1, females, in feed, site: liver + ovary, lesion: hepatocellular carcinoma + granulosa-cell tumor + luteoma + tubular adenoma, dosed 78 weeks, study length 96 weeks",45.3 mg/kg/day
same,TD50,"mouse, strain B6C3F1, females, in feed, site: liver, lesion: hepatocellular adenoma + hepatocellular carcinoma + neoplastic nodule, dosed 78 weeks, study length 96 weeks",45.8 mg/kg/day
same,TD50,"mouse, strain B6C3F1, females, in feed, site: liver, lesion: hepatocellular carcinoma, dosed 78 weeks, study length 96 weeks",45.8 mg/kg/day
same,TD50,"mouse, strain B6C3F1, females, in feed, site: lung, lesion: alveolar/bronchiolar adenoma + alveolar/bronchiolar carcinoma, dosed 78 weeks, study length 96 weeks",1320 mg/kg/day
same,TD50,"mouse, strain B6C3F1, females, in feed, site: ovary, lesion: granulosa-cell tumor + luteoma + tubular adenoma, dosed 78 weeks, study length 96 weeks",217 mg/kg/day
same,TD50,"mouse, strain B6C3F1, females, in feed, site: ovary, lesion: tubular adenoma, dosed 78 weeks, study length 96 weeks",395 mg/kg/day
same,carcinogen call,"mouse, strain B6C3F1, males, in feed, site: any site (literature study), lesion: several types, types named in the paper, dosed 78 weeks, study length 95 weeks",negative (inactive)
same,TD50,"rat, strain Fischer 344, females, in feed, site: any site (literature study), lesion: several types, types named in the paper, dosed 78 weeks, study length 101 weeks",6.44 mg/kg/day
same,TD50,"rat, strain Fischer 344, females, in feed, site: clitoral gland + ear canal + lung + mammary gland, lesion: carcinoma, NOS + carcinosarcoma + ceruminous carcinoma + squamous-cell carcinoma + alveolar/bronchiolar adenoma + alveolar/bronchi, dosed 78 weeks, study length 101 weeks",5.98 mg/kg/day
same,TD50,"rat, strain Fischer 344, females, in feed, site: clitoral gland, lesion: carcinoma, NOS, dosed 78 weeks, study length 101 weeks",52.2 mg/kg/day
same,TD50,"rat, strain Fischer 344, females, in feed, site: ear canal, lesion: carcinosarcoma + ceruminous carcinoma + squamous-cell carcinoma, dosed 78 weeks, study length 101 weeks",14.9 mg/kg/day
same,TD50,"rat, strain Fischer 344, females, in feed, site: ear canal, lesion: ceruminous carcinoma, dosed 78 weeks, study length 101 weeks",17.4 mg/kg/day
same,TD50,"rat, strain Fischer 344, females, in feed, site: ear canal, lesion: squamous-cell carcinoma, dosed 78 weeks, study length 101 weeks",90.5 mg/kg/day
same,TD50,"rat, strain Fischer 344, females, in feed, site: lung, lesion: alveolar/bronchiolar adenoma + alveolar/bronchiolar carcinoma, dosed 78 weeks, study length 101 weeks",9.63 mg/kg/day
same,TD50,"rat, strain Fischer 344, females, in feed, site: mammary gland, lesion: adenocarcinoma, NOS + papillary cystadenocarcinoma, NOS, dosed 78 weeks, study length 101 weeks",77.9 mg/kg/day
same,TD50,"rat, strain Fischer 344, females, in feed, site: mammary gland, lesion: adenocarcinoma, NOS, dosed 78 weeks, study length 101 weeks",81.7 mg/kg/day
same,TD50,"rat, strain Fischer 344, males, in feed, site: any site (literature study), lesion: several types, types named in the paper, dosed 74 weeks, study length 101 weeks",5.58 mg/kg/day
same,TD50,"rat, strain Fischer 344, males, in feed, site: ear canal + lung, lesion: ceruminous carcinoma + squamous-cell carcinoma + alveolar/bronchiolar adenoma + alveolar/bronchiolar carcinoma, dosed 74 weeks, study length 101 weeks",6.45 mg/kg/day
same,TD50,"rat, strain Fischer 344, males, in feed, site: ear canal, lesion: ceruminous carcinoma + squamous-cell carcinoma, dosed 74 weeks, study length 101 weeks",7.88 mg/kg/day
same,TD50,"rat, strain Fischer 344, males, in feed, site: ear canal, lesion: ceruminous carcinoma, dosed 74 weeks, study length 101 weeks",8.92 mg/kg/day
same,TD50,"rat, strain Fischer 344, males, in feed, site: ear canal, lesion: squamous-cell carcinoma, dosed 74 weeks, study length 101 weeks",68.2 mg/kg/day
same,TD50,"rat, strain Fischer 344, males, in feed, site: kidney, lesion: tubular-cell adenoma + tubular-cell adenocarcinoma, dosed 74 weeks, study length 101 weeks",42.9 mg/kg/day
same,TD50,"rat, strain Fischer 344, males, in feed, site: liver, lesion: hepatocellular adenoma + hepatocellular carcinoma + neoplastic nodule, dosed 74 weeks, study length 101 weeks",71.4 mg/kg/day
same,TD50,"rat, strain Fischer 344, males, in feed, site: lung, lesion: alveolar/bronchiolar adenoma + alveolar/bronchiolar carcinoma, dosed 74 weeks, study length 101 weeks",29.9 mg/kg/day
same,TD50,"rat, strain Fischer 344, males, in feed, site: lung, lesion: alveolar/bronchiolar carcinoma, dosed 74 weeks, study length 101 weeks",35.1 mg/kg/day
same,TD50,"rat, strain Fischer 344, males, in feed, site: thyroid gland, lesion: follicular-cell adenoma + papillary adenoma, dosed 74 weeks, study length 101 weeks",58.5 mg/kg/day
same,TD50,"rat, strain Fischer 344, males, in feed, site: thyroid gland, lesion: follicular-cell carcinoma + papillary adenocarcinoma, dosed 74 weeks, study length 101 weeks",37.7 mg/kg/day
Clc1ccc(Sc2cc(Cl)c(Cl)cc2Cl)cc1,carcinogen call,"rat, strain Wistar, females, in feed, site: liver, lesion: one or several types, types not named, dosed 104 weeks, study length 104 weeks",negative (inactive)
same,carcinogen call,"rat, strain Wistar, females, in feed, site: liver, lesion: one or several types, types not named, dosed 116 weeks, study length 116 weeks",negative (inactive)
same,TD50,"rat, strain Wistar, males, in feed, site: liver, lesion: hepatoma, dosed 116 weeks, study length 116 weeks",4590 mg/kg/day (inactive)
same,carcinogen call,"rat, strain Wistar, males, in feed, site: liver, lesion: one or several types, types not named, dosed 104 weeks, study length 104 weeks",negative (inactive)
CCN(Cc1cccc(S(=O)(=O)O)c1)c1ccc(C(=C2C=CC(=[N+](CC)Cc3cccc(S(=O)(=O)[O-])c3)C=C2)c2ccc(S(=O)(=O)O)cc2)cc1,TD50,"mouse, strain C3HeB/FeJ, females, in feed, site: any site (literature study), lesion: malignant tumor, dosed 104 weeks, study length 104 weeks",152000 mg/kg/day (inactive)
same,TD50,"mouse, strain C3HeB/FeJ, females, in feed, site: any site (literature study), lesion: several types, types named in the paper, dosed 104 weeks, study length 104 weeks",148000 mg/kg/day
same,TD50,"mouse, strain C3HeB/FeJ, females, in feed, site: lung, lesion: several types, types named in the paper, dosed 104 weeks, study length 104 weeks",43800 mg/kg/day
same,TD50,"mouse, strain C3HeB/FeJ, males, in feed, site: any site (literature study), lesion: malignant tumor, dosed 104 weeks, study length 104 weeks",49300 mg/kg/day (inactive)
same,TD50,"mouse, strain C3HeB/FeJ, males, in feed, site: any site (literature study), lesion: several types, types named in the paper, dosed 104 weeks, study length 104 weeks",318000 mg/kg/day
same,TD50,"mouse, strain C3HeB/FeJ, males, in feed, site: liver, lesion: several types, types named in the paper, dosed 104 weeks, study length 104 weeks",18900 mg/kg/day
same,TD50,"mouse, strain C3HeB/FeJ, males, in feed, site: lung, lesion: several types, types named in the paper, dosed 104 weeks, study length 104 weeks",58200 mg/kg/day
same,carcinogen call,"rat, strain Not specified, males, in feed, site: any site (literature study), lesion: one or several types, types not named, dosed 65 weeks, study length 65 weeks",negative (inactive)
same,carcinogen call,"rat, strain Osborne-Mendel, females, in feed, site: any site (literature study), lesion: malignant tumor, dosed 104 weeks, study length 104 weeks",negative (inactive)
same,carcinogen call,"rat, strain Osborne-Mendel, females, in feed, site: any site (literature study), lesion: several types, types named in the paper, dosed 104 weeks, study length 104 weeks",negative (inactive)
same,carcinogen call,"rat, strain Osborne-Mendel, females, in feed, site: liver, lesion: one or several types, types not named, dosed 104 weeks, study length 104 weeks",negative (inactive)
same,carcinogen call,"rat, strain Osborne-Mendel, males, in feed, site: any site (literature study), lesion: malignant tumor, dosed 104 weeks, study length 104 weeks",negative (inactive)
same,carcinogen call,"rat, strain Osborne-Mendel, males, in feed, site: any site (literature study), lesion: several types, types named in the paper, dosed 104 weeks, study length 104 weeks",negative (inactive)
same,carcinogen call,"rat, strain Osborne-Mendel, males, in feed, site: liver, lesion: hepatocellular adenoma, dosed 104 weeks, study length 104 weeks",negative (inactive)
same,TD50,"rat, strain Wistar, both sexes, in feed, site: cecum, lesion: malignant lymphoma, dosed 95 weeks, study length 95 weeks",5640 mg/kg/day
COc1c2occc2cc2ccc(=O)oc12,TD50,"mouse, strain HRA/Skh (hairless), females, in feed, site: skin, lesion: several types, types named in the paper, dosed 52 weeks, study length 80 weeks",56.8 mg/kg/day (inactive)
same,TD50,"mouse, strain HRA/Skh (hairless), females, in feed, site: skin, lesion: squamous-cell carcinoma, dosed 52 weeks, study length 80 weeks",48.9 mg/kg/day (inactive)
same,TD50,"mouse, strain HRA/Skh (hairless), females, in feed, site: skin, lesion: squamous-cell papilloma, dosed 52 weeks, study length 80 weeks",151 mg/kg/day (inactive)
same,carcinogen call,"mouse, strain HRA/Skh (hairless), males, in feed, site: skin, lesion: several types, types named in the paper, dosed 52 weeks, study length 80 weeks",negative (inactive)
same,carcinogen call,"mouse, strain HRA/Skh (hairless), males, in feed, site: skin, lesion: squamous-cell carcinoma, in situ, dosed 52 weeks, study length 80 weeks",negative (inactive)
same,carcinogen call,"mouse, strain HRA/Skh (hairless), males, in feed, site: skin, lesion: squamous-cell carcinoma, dosed 52 weeks, study length 80 weeks",negative (inactive)
same,TD50,"mouse, strain HRA/Skh (hairless), males, in feed, site: skin, lesion: squamous-cell papilloma, dosed 52 weeks, study length 80 weeks",137 mg/kg/day (inactive)
same,TD50,"rat, strain Fischer 344, females, by gavage, site: any site (literature study), lesion: several types, types named in the paper, dosed 103 weeks, study length 105 weeks",45.6 mg/kg/day
same,TD50,"rat, strain Fischer 344, females, by gavage, site: liver, lesion: hepatocellular adenoma + hepatocellular carcinoma + neoplastic nodule, dosed 103 weeks, study length 105 weeks",5140 mg/kg/day
same,TD50,"rat, strain Fischer 344, females, by gavage, site: palate + tongue, lesion: squamous-cell papilloma, dosed 103 weeks, study length 105 weeks",333 mg/kg/day (inactive)
same,TD50,"rat, strain Fischer 344, males, by gavage, site: Zymbal's gland, lesion: carcinoma, NOS + squamous-cell carcinoma, dosed 103 weeks, study length 105 weeks",101 mg/kg/day
same,TD50,"rat, strain Fischer 344, males, by gavage, site: any site (literature study), lesion: several types, types named in the paper, dosed 103 weeks, study length 105 weeks",16.1 mg/kg/day
same,TD50,"rat, strain Fischer 344, males, by gavage, site: kidney + Zymbal's gland, lesion: tubular-cell adenoma + tubular-cell adenocarcinoma + carcinoma, NOS + squamous-cell carcinoma, dosed 103 weeks, study length 105 weeks",27.3 mg/kg/day
same,TD50,"rat, strain Fischer 344, males, by gavage, site: kidney, lesion: tubular-cell adenocarcinoma, dosed 103 weeks, study length 105 weeks",167 mg/kg/day
same,TD50,"rat, strain Fischer 344, males, by gavage, site: kidney, lesion: tubular-cell adenoma + tubular-cell adenocarcinoma, dosed 103 weeks, study length 105 weeks",32.4 mg/kg/day
same,TD50,"rat, strain Fischer 344, males, by gavage, site: kidney, lesion: tubular-cell adenoma, dosed 103 weeks, study length 105 weeks",43.2 mg/kg/day
same,TD50,"rat, strain Fischer 344, males, by gavage, site: lung, lesion: alveolar/bronchiolar adenoma + alveolar/bronchiolar carcinoma, dosed 103 weeks, study length 105 weeks",57.1 mg/kg/day
same,TD50,"rat, strain Fischer 344, males, by gavage, site: lung, lesion: alveolar/bronchiolar adenoma, dosed 103 weeks, study length 105 weeks",57.1 mg/kg/day
same,TD50,"rat, strain Fischer 344, males, by gavage, site: lung, lesion: alveolar/bronchiolar carcinoma, dosed 103 weeks, study length 105 weeks",488 mg/kg/day
same,TD50,"rat, strain Fischer 344, males, by gavage, site: pancreas, lesion: acinar-cell adenoma, dosed 103 weeks, study length 105 weeks",113 mg/kg/day
same,TD50,"rat, strain Fischer 344, males, by gavage, site: subcutaneous tissue, lesion: fibroma + sarcoma, NOS, dosed 103 weeks, study length 105 weeks",70.2 mg/kg/day
same,TD50,"rat, strain Fischer 344, males, by gavage, site: subcutaneous tissue, lesion: fibroma, dosed 103 weeks, study length 105 weeks",72.6 mg/kg/day
same,TD50,"rat, strain Fischer 344, males, by gavage, site: testis, lesion: interstitial-cell tumor, dosed 103 weeks, study length 105 weeks",14.6 mg/kg/day
